Assay: xn = mol fraction of the nth substance listed
Settings: 101 kPa, Liquid

CCCCCCCCCO [nonan-1-ol] + CCCCCCCCCCO
Settings	mass density [kg/m3]	viscosity [mPa·s]
283.15 K, x1 = 0.1009	836.5	21.5
283.15 K, x1 = 0.2	836.4	21.12
283.15 K, x1 = 0.3	836.2	20.65
283.15 K, x1 = 0.4002	836	20.15
283.15 K, x1 = 0.5001	835.9	19.71
283.15 K, x1 = 0.6003	835.7	19.17
283.15 K, x1 = 0.6996	835.6	18.59
283.15 K, x1 = 0.7999	835.4	18.14
283.15 K, x1 = 0.9047	835.2	17.78
283.15 K, x1 = 1	835	17.44
288.15 K, x1 = 0.1009	833.2	17.44
288.15 K, x1 = 0.2	833	17.06
288.15 K, x1 = 0.3	832.8	16.69
288.15 K, x1 = 0.3999	832.7	16.2
288.15 K, x1 = 0.5001	832.5	15.82
288.15 K, x1 = 0.6003	832.3	15.44
288.15 K, x1 = 0.6996	832.2	15.2
288.15 K, x1 = 0.7999	832	14.85
288.15 K, x1 = 0.9047	831.8	14.48
288.15 K, x1 = 1	831.5	14.27
293.15 K, x1 = 0.1009	829.8	14.1
293.15 K, x1 = 0.2	829.6	13.73
293.15 K, x1 = 0.3	829.5	13.5
293.15 K, x1 = 0.3999	829.3	13.22
293.15 K, x1 = 0.5	829.1	13
293.15 K, x1 = 0.6003	829	12.48
293.15 K, x1 = 0.6996	828.8	12.36
293.15 K, x1 = 0.7999	828.6	12.09
293.15 K, x1 = 0.9047	828.4	11.83
293.15 K, x1 = 1	828.1	11.63
298.15 K, x1 = 0.1009	826.4	11.52
298.15 K, x1 = 0.2	826.2	11.36
298.15 K, x1 = 0.3	826.1	11.13
298.15 K, x1 = 0.4002	825.9	10.87
298.15 K, x1 = 0.5	825.7	10.62
298.15 K, x1 = 0.6003	825.5	10.38
298.15 K, x1 = 0.6996	825.4	10.17
298.15 K, x1 = 0.7999	825.1	9.933
298.15 K, x1 = 0.9047	824.9	9.725
298.15 K, x1 = 1	824.7	9.519
303.15 K, x1 = 0.1009	822.9	9.398
303.15 K, x1 = 0.2	822.8	9.242
303.15 K, x1 = 0.3	822.6	9.083
303.15 K, x1 = 0.4002	822.4	8.886
303.15 K, x1 = 0.5001	822.2	8.703
303.15 K, x1 = 0.6003	822	8.504
303.15 K, x1 = 0.6996	821.9	8.332
303.15 K, x1 = 0.7999	821.7	8.16
303.15 K, x1 = 0.9047	821.5	7.929
303.15 K, x1 = 1	821.3	7.806
308.15 K, x1 = 0.1009	819.5	7.867
308.15 K, x1 = 0.2	819.4	7.739
308.15 K, x1 = 0.3	819.1	7.613
308.15 K, x1 = 0.4002	819	7.453
308.15 K, x1 = 0.5	818.8	7.307
308.15 K, x1 = 0.6003	818.6	7.151
308.15 K, x1 = 0.6996	818.5	7.014
308.15 K, x1 = 0.7999	818.3	6.857
308.15 K, x1 = 0.9047	818	6.693
308.15 K, x1 = 1	817.8	6.604
313.15 K, x1 = 0.1009	816.1	6.704
313.15 K, x1 = 0.2	815.9	6.629
313.15 K, x1 = 0.3	815.7	6.517
313.15 K, x1 = 0.4002	815.6	6.4
313.15 K, x1 = 0.5001	815.3	6.234
313.15 K, x1 = 0.6003	815.2	6.15
313.15 K, x1 = 0.6996	815	6.026
313.15 K, x1 = 0.7999	814.8	5.87
313.15 K, x1 = 0.9047	814.5	5.779
313.15 K, x1 = 1	814.3	5.668

Reference: the NIST ThermoML archive (doi:10.1021/je050200w)
